Results from patent US20100015058A1, “RADIOLABELED BBN-RGD HETERODIMERS FOR CANCER TARGETING” (STANFORD UNIVERSITY, priority 2008, published 2010).

Experiments:
[1] = system: PC-3 tumor cells; format: cell-based, human
Experimental: In the cell efflux experiment, PC-3 cells were seeded into 12-well plates at a density of 5×10^5 cells per well for overnight incubation. Cells were rinsed 3 times with PBS and then the appropriate ^18F-labeled peptide tracer was added. The cells were incubated at 37° C. for 2 hr, washed with PBS, and then reincubated with serum-free medium. The cells were washed at different time points (0, 15, 30, 60, 120, 180 min) with PBS and lysed with NaOH-SDS (0.2 M NaOH, 1% SDS). The cell lysate was collected in measurement tubes for counting. Efflux values at different time points were calculated by subtracting retention from 0-min retention, and normalized by dividing the total counts at 0 min.
(§1) The cell uptake studies were performed as we have previously described with some modifications (Chen et al., Mol Imaging Biol. (2004) […]; Cai et al., (2006) J. Nuc. Med. 47: 1172-1180, incorporated herein by reference in their entireties). Briefly, PC-3 cells were seeded into 12-well plates at a density of 5×10^5 cells per well and incubated (about 18 kBq/well) with ^68Ga-labeled tracers at 37° C. for 15, 30, 60, and 120 min. Tumor cells were then washed three times with chilled PBS and harvested by trypsinization with 0.25% trypsin/0.02% EDTA (Invitrogen). The cell suspensions were collected and measured in a y counter (Packard, Meriden, Conn.). The cell uptake was expressed as the percent added dose (% AD) after decay correction. Experiments were performed twice with triplicate wells. For efflux studies, ^68Ga-labeled tracers (about 18 kBq/well) were first incubated with PC-3 cells in 12-well plates for 1 h at 37° C. to allow internalization. Then cells were washed twice with PBS, and incubated with cell culture medium for 15, 30, and 60 min. After washing three times with PBS, cells were harvested by trypsinization with 0.25% trypsin/0.02% EDTA. The cell suspensions were collected and measured in a γ counter. Experiments were performed twice with triplicate wells. Data are expressed as percent added dose after decay correction.

[2] = system: PC-3 tumor; assay: Small-animal PET of PC-3 tumor-bearing mice
[3] = system: PC-3 tumor cells; assay: Cell uptake assay on PC-3 tumor cells; format: cell-based, human; conditions: PC-3 cells
Experimental: In the cell uptake experiment, PC-3 cells were seeded into 12-well plates at a density of 5×10^5 cells per well for overnight incubation. Cells were rinsed 3 times with phosphate-buffered saline (PBS), followed by the addition of ^18F-FB-RGD, ^18F-FB-BBN, or ^18F-BBN-RGD to the cultured wells in triplicate (about 2 μCi/well). […] The cell lysate was collected in measurement tubes for counting. The cell uptake was normalized in terms of added radioactivity.
as §1

[4] = system: T47D tumor; assay: MicroPET of T47D tumor-bearing mice; format: in vivo; conditions: orthotopic model
Excerpt: The MDA-MB-231, MDA-MB468, BT474, BT-20, T47D, MCF-7 and MDA-MB435 human breast cancer cell lines were all obtained from the American Type Culture Collection (ATCC) and maintained under standard conditions according to ATCC. The MDA-MB435 tumor model was established by orthotopic injections of 5×10^6 cells into the right mammary fat pad of female athymic nude mice. For T47D tumor model establishment, the female nude mice were first subcutaneously implanted with 60-day release 17β-estradiol pellets (Innovative Research of America, Sarasota, Fla.) in the left neck. One day after the estradiol implantation, 1×10^7 T47D cells were orthotopically injected into the right mammary fat pad of the nude mice. The mice were subjected to microPET studies when the tumor volume reached 100-300 mm^3 (2-3 weeks for MDA-MB-435, and 4-5 wk for T47D).
(§2) Quantification of tumor and major organ activity accumulation in the microPET scans was realized by measuring the regions of interest (ROIs) that encompassing the entire organ on the coronal images.

[5] = in vivo; set-up: species or system mice; conditions: male, athymic nude, mouse, 0.74 MBq, total radioactivity
Experimental: At 0.5 h and 1 h after injection of the tracer, the tumor-bearing mice were killed and dissected. Blood, tumor, major organs, and tissues were collected and wet-weighed. The radioactivity in the tissue was measured by y counter (Packard). The results are presented as percentage injected dose per gram of tissue (% ID/g). For each mouse, the radioactivity of the tissue samples was calibrated against a known aliquot of the injectate and normalized to a body mass of 20 g. Values were expressed as mean±SD for groups of four animals (n=4 per group).

[6] = system: MDA-MB-435 tumor; assay: Small-animal PET of MDA-MB-435 tumor-bearing mice; conditions: female, athymic nude, mouse, in vivo, iv
Experimental: The MDA-MB435 tumor model was established by orthotopic injections of 5×10^6 cells into the right mammary fat pad of female athymic nude mice. […] The mice were subjected to microPET studies when the tumor volume reached 100-300 mm^3 (2-3 weeks for MDA-MB-435, and 4-5 wk for T47D).
For static PET, 5-min scans were acquired at 30 min, 1 h, and 2 h after injection. For dynamic PET, 30-min scans (1×30 s, 4×1 min, 1×1.5 min, 4×2 min, 5×3 min; total 15 frames) were started 1 min after injection, and two 5-min static PET images were also acquired at 1 h and 2 h after injection. The images were reconstructed using a two-dimensional ordered subsets expectation maximum (OSEM) algorithm and no correction was applied for attenuation or scatter. […] For each small-animal PET scan, regions of interest (ROIs) were drawn over the tumor, normal tissue, and major organs using vendor software ASI Pro 5.2.4.0 on decay-corrected whole-body coronal images. The maximum radioactivity concentrations (accumulation) within a tumor or an organ were obtained from mean pixel values within the multiple ROI volume, and were converted to megabecquerels per milliliter per minute using a conversion factor. These values were then divided by the administered activity to obtain (assuming a tissue density of 1 g/ml) an image ROI-derived percent injected dose per gram (% ID/g).
as §2

In the case of `CSCC[C@H](NC(=O)[C@H](CC(C)C)NC(=O)[C@H](Cc1c[nH]cn1)NC(=O)CNC(=O)[C@@H](NC(=O)[C@H](C)NC(=O)[C@H](Cc1c[nH]c2ccccc12)NC(=O)[C@H](CCC(N)=O)NC(=O)CCCCCNC(=O)CC[C@H](NC(=O)COCCOCCOCCNC(=O)c1ccc([18F])cc1)C(=O)NCCCC[C@@H]1NC(=O)[C@@H](Cc2ccc(O)cc2)NC(=O)[C@H](CC(=O)O)NC(=O)CNC(=O)[C@H](CCCNC(=N)N)NC1=O)C(C)C)C(N)=O` [^18F-FB-PEG3-RGD-BBN], the efflux ratio [1] is reported as “about 40%”, the “decrease of tumor uptake by BBN blocking” value ([2]; 1 h, Aca-BBN(7-14) 15 mg/kg, n=3) is reported as 65% and the “decrease of tumor uptake by RGD and BBN blocking” value ([2]; 1 h, RGD 10 mg/kg and BBN 15 mg/kg, n=3) is reported as 90%. For the same molecule, the “decrease of tumor uptake by RGD blocking” value ([2]; 1 h, c(RGDyK) 10 mg/kg, n=3) was 50%, the “blood % ID/g at 30 min relative to that at 2 min p.i.” value ([2]; mouse, in vivo) was 35% and the “time of peak kidney uptake” value ([2]; mouse, in vivo) was “about 10 min”. For the same molecule, the “inhibition of cell uptake by BBN” value ([3]; 4° C., 60 min, blocking with Aca-BBN(7-14)) was 83.67±2.09%, the “inhibition of cell uptake by RGD+BBN” value ([3]; 4° C., 60 min, blocking with both peptides) was 91.97±0.14% and the “inhibition of cell uptake by RGD” value ([3]; 4° C., 60 min, blocking with c(RGDyK)) was 17.55±8.89%. For the same molecule, the cell uptake ([3]; 37° C., 15 min) was 4.72±0.37%, the cell uptake ([3]; 37° C., 30 min) was 5.51±0.11% and the cell uptake ([3]; 37° C., 60 min) was 5.87±0.15%. The cell uptake ([3]; 37° C., 120 min) was 6.65±0.34%, the “internalization (uptake at 37° C. minus uptake at 4° C.)” value ([3]; within 30 min of incubation, plateaus afterwards) was “about 3.5%” and the T47D tumor uptake ([4]; 0.5 h) was 2.96±0.53 % ID/g. It also gave a T47D tumor uptake ([4]; 1 h) of 1.81±0.34 % ID/g, a T47D tumor uptake ([4]; 2 h) of 0.91±0.12 % ID/g and a tissue uptake at 1 h ([5]; kidney uptake, biodistribution) of 4.87 ± 0.67 %ID/g. The tissue uptake at 1 h ([5]; tumor uptake, biodistribution) was 4 ± 0.08 %ID/g and the tissue uptake at 1 h ([5]; uptake values in the blood, heart, liver, spleen, bone, and muscle) was less than 2 %ID/g.

With `CSCC[C@H](NC(=O)[C@H](CC(C)C)NC(=O)[C@H](Cc1c[nH]cn1)NC(=O)CNC(=O)[C@@H](NC(=O)[C@H](C)NC(=O)[C@H](Cc1c[nH]c2ccccc12)NC(=O)[C@H](CCC(N)=O)NC(=O)CCCCCNC(=O)CC[C@H](NC(=S)Nc1ccc(C[C@H]2CN(CC(=O)O)CCN(CC(=O)O)CCN2CC(=O)O)cc1)C(=O)NCCCC[C@@H]1NC(=O)[C@@H](Cc2ccc(O)cc2)NC(=O)[C@H](CC(=O)O)NC(=O)CNC(=O)[C@H](CCCNC(=N)N)NC1=O)C(C)C)C(N)=O` [^64Cu-NOTA-RGD-BBN, metal not drawn] the cell uptake value ([3]; 120 min) was 2.94 % added dose, the T47D tumor uptake ([4]; 0.5 h) was 3.73 ± 0.81 % ID/g and the T47D tumor uptake ([4]; 1 h) was 2.33 ± 0.59 % ID/g. It also gave a T47D tumor uptake ([4]; 2 h) of 1.97 ± 0.32 % ID/g, an MDA-MB-435 tumor uptake ([6]; 1 h) of 1.84 ± 0.44 % ID/g and an MDA-MB-435 tumor uptake ([6]; 2 h) of 1.47 ± 0.19 % ID/g.

With `CSCC[C@H](NC(=O)[C@H](CC(C)C)NC(=O)[C@H](Cc1c[nH]cn1)NC(=O)CNC(=O)[C@@H](NC(=O)[C@H](C)NC(=O)[C@H](Cc1c[nH]c2ccccc12)NC(=O)[C@H](CCC(N)=O)NC(=O)CCCCCNC(=O)CC[C@H](NC(=S)Nc1ccc(C[C@H]2CN(CC(=O)O)CCN(CC(=O)O)CCN2CC(=O)O)cc1)C(=O)NCCCC[C@@H]1NC(=O)[C@@H](Cc2ccc(O)cc2)NC(=O)[C@H](CC(=O)O)NC(=O)CNC(=O)[C@H](CCCNC(=N)N)NC1=O)C(C)C)C(N)=O` [^68Ga-NOTA-RGD-BBN, metal not drawn] the “cell-associated tracer (cell retention)” value ([1]; PC-3 cells, 60 min efflux, FIG. 14D) was 1.14±0.50 % AD, the “time of peak kidney uptake” value ([2]; mouse, in vivo) was “about 10 min” and the “cell uptake (plateau)” value ([3]; 37° C., 15 min incubation) was 1.69±0.29 % AD. It also gave a tissue uptake at 0.5 h ([5]; kidney uptake, biodistribution) of 8.76 ± 1.83 %ID/g, a tissue uptake at 1 h ([5]; kidney uptake, biodistribution) of 5.58 ± 0.75 %ID/g and a tissue uptake at 0.5 h ([5]; tumor uptake, biodistribution) of 5.43 ± 0.54 %ID/g. The tissue uptake at 1 h ([5]; tumor uptake, biodistribution) was 4.76 ± 0.46 %ID/g.
